Results as given in ChEMBL document CHEMBL4406797, “Histone acetyltransferase inhibitors: An overview in synthesis, structure-activity relationship and molecular mechanism” (Eur J Med Chem, 2019).
One block for each compound: values may come before it.

Tests used:
[1] = biological target: T1, CREB-binding protein (Homo sapiens, UniProt Q92793); test: Inhibition of CBP (unknown origin) at 50 uM relative to control
Target sequence in this assay (Q92793 2-2442 limits assumed): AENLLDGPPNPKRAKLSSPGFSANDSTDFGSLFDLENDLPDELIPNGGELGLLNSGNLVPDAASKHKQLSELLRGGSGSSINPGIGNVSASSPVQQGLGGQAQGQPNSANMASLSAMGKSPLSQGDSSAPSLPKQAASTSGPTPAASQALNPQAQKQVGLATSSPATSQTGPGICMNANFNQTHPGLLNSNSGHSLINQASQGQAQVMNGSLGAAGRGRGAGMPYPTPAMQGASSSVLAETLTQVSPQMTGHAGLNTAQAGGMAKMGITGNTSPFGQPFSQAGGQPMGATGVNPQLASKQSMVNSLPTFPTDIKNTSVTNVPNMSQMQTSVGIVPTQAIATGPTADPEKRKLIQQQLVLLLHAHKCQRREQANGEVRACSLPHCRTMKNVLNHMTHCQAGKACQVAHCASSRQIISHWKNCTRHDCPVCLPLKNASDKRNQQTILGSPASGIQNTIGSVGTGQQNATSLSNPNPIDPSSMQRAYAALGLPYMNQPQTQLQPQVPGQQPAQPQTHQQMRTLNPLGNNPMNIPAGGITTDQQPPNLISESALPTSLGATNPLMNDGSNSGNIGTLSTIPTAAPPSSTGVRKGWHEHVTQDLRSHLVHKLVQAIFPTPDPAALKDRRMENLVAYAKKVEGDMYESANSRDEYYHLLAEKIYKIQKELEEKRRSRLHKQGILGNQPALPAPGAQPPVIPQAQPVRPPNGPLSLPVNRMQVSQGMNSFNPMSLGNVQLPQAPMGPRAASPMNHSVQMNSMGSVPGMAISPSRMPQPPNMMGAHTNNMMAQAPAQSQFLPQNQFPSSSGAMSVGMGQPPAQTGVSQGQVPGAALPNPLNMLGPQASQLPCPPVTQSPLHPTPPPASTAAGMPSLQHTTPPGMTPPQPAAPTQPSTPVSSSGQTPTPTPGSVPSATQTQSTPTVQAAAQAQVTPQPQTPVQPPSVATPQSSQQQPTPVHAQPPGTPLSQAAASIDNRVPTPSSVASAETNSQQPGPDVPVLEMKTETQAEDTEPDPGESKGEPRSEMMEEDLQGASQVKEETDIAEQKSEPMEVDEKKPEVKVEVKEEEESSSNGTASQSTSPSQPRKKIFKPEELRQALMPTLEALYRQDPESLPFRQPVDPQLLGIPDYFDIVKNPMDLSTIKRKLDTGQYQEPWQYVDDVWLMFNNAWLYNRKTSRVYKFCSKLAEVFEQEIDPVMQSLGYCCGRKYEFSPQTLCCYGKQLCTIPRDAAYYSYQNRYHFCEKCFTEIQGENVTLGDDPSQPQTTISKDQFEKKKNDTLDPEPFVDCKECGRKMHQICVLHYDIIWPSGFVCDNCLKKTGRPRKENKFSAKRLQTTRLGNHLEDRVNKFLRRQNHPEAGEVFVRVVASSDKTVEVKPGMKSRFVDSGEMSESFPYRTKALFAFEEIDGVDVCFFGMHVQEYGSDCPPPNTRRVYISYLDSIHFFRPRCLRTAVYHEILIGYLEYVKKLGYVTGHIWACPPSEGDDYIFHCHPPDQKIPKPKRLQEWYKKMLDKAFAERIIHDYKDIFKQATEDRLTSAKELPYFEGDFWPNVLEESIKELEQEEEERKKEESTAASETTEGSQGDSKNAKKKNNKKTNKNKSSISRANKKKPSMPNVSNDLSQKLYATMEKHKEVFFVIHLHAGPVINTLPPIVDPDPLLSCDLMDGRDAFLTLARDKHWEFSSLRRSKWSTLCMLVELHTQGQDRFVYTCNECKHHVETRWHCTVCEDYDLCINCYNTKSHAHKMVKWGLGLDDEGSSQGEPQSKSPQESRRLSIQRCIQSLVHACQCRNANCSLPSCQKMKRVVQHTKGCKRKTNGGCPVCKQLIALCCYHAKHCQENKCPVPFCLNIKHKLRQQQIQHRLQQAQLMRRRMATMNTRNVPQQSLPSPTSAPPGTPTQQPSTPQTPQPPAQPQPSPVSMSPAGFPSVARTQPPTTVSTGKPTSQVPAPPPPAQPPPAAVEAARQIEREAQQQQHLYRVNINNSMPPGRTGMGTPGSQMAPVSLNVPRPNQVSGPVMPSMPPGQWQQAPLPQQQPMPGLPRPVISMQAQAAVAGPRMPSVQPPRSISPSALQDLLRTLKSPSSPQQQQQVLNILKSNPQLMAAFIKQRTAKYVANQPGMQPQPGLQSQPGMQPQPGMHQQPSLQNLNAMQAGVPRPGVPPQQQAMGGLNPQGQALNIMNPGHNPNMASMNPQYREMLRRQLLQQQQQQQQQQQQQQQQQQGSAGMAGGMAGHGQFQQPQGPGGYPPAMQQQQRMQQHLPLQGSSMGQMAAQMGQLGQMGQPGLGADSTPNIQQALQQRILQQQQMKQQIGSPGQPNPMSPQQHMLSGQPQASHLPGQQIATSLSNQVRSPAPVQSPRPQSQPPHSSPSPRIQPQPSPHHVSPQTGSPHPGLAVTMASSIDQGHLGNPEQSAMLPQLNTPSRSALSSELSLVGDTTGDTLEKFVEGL

[2] = system: A549; test: Cytotoxicity against human A549 cells assessed as reduction in cell viability by SRB assay; format: functional, cell-based
[3] = system: Hep 3B2; test: Cytotoxicity against human Hep3B cells assessed as reduction in cell viability by SRB assay; format: functional, cell-based
[4] = system: HeLa; test: Cytotoxicity against human HeLa cells assessed as reduction in cell viability by SRB assay; format: functional, cell-based
[5] = system: HT-29; test: Cytotoxicity against human HT-29 cells assessed as reduction in cell viability by SRB assay; format: functional, cell-based
[6] = system: MDA-MB-231; test: Cytotoxicity against human MDA-MB-231 cells assessed as reduction in cell viability by SRB assay; format: functional, cell-based
[7] = system: HCT cell line; test: Cytotoxicity against human HCT cells assessed as reduction in cell viability by SRB assay; format: functional, cell-based
[8] = biological target: T1, CREB-binding protein; test: Inhibition of recombinant CBP (unknown origin) at 500 uM using H3 peptide as substrate after 30 mins in presence of acetyl-CoA by fluorescence assay relative to control
Target sequence in this assay (Q92793 2-2442 limits assumed): as above

[9] = biological target: T2, Histone acetyltransferase p300 (Homo sapiens, UniProt Q09472); test: Displacement of [3H]-acetyl-CoA from P300 (unknown origin) using peptide as substrate after 60 mins
[10] = biological target: T2, Histone acetyltransferase p300; test: Inhibition of P300 (unknown origin)
[11] = biological target: T1, CREB-binding protein; test: Inhibition of CBP BHC domain (unknown origin)
[12] = organism: Homo sapiens; test: Inhibition of HAT (unknown origin) relative to control; parameters: concentration or dose not given beside the values; settings: concentration not given here
[13] = organism: Homo sapiens; test: Inhibition of Tip60 (unknown origin)/ PCAF (unknown origin)/ CBP (unknown origin) relative to control; settings: concentration not given here
[14] = biological target: T2, Histone acetyltransferase p300; test: Inhibition of P300 (unknown origin) relative to control; settings: concentration not given here
[15] = system: U-937; test: Induction of apoptosis in human U937 cells relative to control; format: functional
[16] = biological target: T3, Histone acetyltransferase KAT2B (Homo sapiens, UniProt Q92831); test: Inhibition of recombinant GST-tagged PCAF (32 residues) (unknown origin) expressed in Escherichia coli using radiolabelled acetyl-CoA as substrate after 20 mins by TopCount scintillation counting analysis
Target sequence in this assay (Q92831 whole entry): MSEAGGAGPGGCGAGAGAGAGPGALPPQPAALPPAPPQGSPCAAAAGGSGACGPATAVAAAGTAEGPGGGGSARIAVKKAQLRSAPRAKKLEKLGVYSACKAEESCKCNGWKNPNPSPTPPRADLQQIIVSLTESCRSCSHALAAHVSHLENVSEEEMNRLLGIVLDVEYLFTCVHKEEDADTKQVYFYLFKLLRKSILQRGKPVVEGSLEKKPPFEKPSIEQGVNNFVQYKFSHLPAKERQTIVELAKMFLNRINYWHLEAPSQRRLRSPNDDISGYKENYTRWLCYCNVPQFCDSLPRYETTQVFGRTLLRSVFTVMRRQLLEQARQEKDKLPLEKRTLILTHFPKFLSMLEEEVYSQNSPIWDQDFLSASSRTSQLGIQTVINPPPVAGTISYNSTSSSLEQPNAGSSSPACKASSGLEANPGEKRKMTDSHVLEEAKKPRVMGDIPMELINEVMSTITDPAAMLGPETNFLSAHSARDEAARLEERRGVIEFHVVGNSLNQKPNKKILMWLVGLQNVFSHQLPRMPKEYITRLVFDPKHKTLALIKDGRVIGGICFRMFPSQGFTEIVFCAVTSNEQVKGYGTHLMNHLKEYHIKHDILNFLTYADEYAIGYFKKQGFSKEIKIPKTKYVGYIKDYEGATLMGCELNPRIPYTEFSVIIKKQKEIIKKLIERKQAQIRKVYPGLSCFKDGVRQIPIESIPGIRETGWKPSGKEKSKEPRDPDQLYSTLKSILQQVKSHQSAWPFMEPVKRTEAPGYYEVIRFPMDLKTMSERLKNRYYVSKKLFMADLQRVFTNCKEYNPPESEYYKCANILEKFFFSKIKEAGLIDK

[17] = biological target: T3, Histone acetyltransferase KAT2B; test: Inhibition of recombinant GST-tagged PCAF (32 residues) (unknown origin) expressed in Escherichia coli assessed as reduction in H3K9 acetylation using radiolabelled acetyl-CoA as substrate after 20 mins by TopCount scintillation counting analysis relative to control
Target sequence in this assay (Q92831 whole entry, looked up): as the sequence (Q92831 whole entry) above

[18] = biological target: T3, Histone acetyltransferase KAT2B; test: Inhibition of recombinant GST-tagged PCAF (32 residues) (unknown origin) expressed in Escherichia coli assessed as reduction in H4K8 acetylation using radiolabelled acetyl-CoA as substrate after 20 mins by TopCount scintillation counting analysis relative to control
Target sequence in this assay (Q92831 whole entry, looked up): as the sequence (Q92831 whole entry) above

[19] = biological target: Histone acetyltransferase KAT2A (Homo sapiens) (UniProt Q92830); test: Inhibition of GCN5 (unknown origin) relative to control; settings: concentration not given here
[20] = biological target: T3, Histone acetyltransferase KAT2B; test: Inhibition of PCAF (unknown origin) relative to control; settings: concentration not given here
Target sequence in this assay (Q92831 whole entry, looked up): as the sequence (Q92831 whole entry) above

[21] = biological target: Histone deacetylase 1 (Homo sapiens) (UniProt Q13547); test: Inhibition of HDAC1 (unknown origin) relative to control; settings: concentration not given here
[22] = biological target: T2, Histone acetyltransferase p300; test: Displacement of [3H]-acetyl-CoA from recombinant GST-tagged P300 (unknown origin) by scintillation counting analysis
[23] = biological target: T4, Histone acetyltransferase KAT7 (Homo sapiens, UniProt O95251); settings: 10 uM
[24] = biological target: Histone acetyltransferase KAT5 (Homo sapiens, UniProt Q92993); test: Inhibition of KAT5 (unknown origin)
[25] = biological target: T4, Histone acetyltransferase KAT7; settings: 10 uM; remark: listed apart in the source
[26] = biological target: T4, Histone acetyltransferase KAT7; test: Inhibition of KAT7 (unknown origin)
[27] = biological target: T2, Histone acetyltransferase p300; test: Displacement of [3H]-acetyl-CoA from recombinant GST-tagged P300 (unknown origin) after 30 mins by scintillation counting analysis

T4 sequence (O95251 whole entry): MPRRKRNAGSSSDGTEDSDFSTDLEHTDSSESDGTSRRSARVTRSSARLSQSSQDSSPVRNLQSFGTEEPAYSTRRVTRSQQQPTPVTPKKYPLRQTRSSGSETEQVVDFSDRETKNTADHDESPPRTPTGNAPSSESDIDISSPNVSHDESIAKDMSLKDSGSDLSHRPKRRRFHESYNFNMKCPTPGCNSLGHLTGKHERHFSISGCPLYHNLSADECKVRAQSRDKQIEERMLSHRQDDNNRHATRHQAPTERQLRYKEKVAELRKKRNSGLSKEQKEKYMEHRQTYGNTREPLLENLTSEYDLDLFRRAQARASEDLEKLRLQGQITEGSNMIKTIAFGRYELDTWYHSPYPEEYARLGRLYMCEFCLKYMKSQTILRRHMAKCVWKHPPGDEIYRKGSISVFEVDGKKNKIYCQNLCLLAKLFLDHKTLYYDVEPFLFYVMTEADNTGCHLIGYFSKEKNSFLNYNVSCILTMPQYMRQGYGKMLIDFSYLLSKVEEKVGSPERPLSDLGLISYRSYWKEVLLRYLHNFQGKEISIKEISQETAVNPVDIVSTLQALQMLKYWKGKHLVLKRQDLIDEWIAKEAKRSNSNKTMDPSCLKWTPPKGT
Chain of Histone acetyltransferase KAT5 (Q92993 whole entry): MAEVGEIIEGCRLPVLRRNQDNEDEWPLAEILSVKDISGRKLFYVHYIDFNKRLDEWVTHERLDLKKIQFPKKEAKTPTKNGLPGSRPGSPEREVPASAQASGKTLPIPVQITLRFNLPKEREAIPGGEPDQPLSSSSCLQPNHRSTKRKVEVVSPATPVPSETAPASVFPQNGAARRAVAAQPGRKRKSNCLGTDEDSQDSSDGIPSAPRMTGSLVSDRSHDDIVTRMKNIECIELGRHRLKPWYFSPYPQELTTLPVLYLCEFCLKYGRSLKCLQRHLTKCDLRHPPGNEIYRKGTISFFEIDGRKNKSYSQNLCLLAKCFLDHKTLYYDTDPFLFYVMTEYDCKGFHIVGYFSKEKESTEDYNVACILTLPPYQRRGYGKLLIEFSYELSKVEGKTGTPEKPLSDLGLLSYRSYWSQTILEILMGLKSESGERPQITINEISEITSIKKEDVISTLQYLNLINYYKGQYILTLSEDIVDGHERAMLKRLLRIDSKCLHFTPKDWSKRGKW
Chain of Histone deacetylase 1 (Homo sapiens) (Q13547 whole entry): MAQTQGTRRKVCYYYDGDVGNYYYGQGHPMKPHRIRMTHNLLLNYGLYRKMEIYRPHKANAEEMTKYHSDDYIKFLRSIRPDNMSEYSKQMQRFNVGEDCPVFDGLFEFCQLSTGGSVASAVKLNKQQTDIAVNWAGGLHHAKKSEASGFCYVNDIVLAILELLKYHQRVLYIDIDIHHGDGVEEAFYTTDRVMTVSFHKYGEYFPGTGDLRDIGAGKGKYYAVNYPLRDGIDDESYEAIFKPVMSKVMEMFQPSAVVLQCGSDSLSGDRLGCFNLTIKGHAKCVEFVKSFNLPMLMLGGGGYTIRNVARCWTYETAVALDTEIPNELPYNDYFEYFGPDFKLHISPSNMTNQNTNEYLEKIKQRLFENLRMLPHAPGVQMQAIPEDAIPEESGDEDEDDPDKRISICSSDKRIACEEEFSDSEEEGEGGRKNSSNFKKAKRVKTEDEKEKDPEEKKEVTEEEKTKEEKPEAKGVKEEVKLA

Compound: CCCCCCCCCCCCCCCC(=O)Nc1ccccc1C(=O)Nc1ccc(C(=O)O)cc1
IC50 [2]: 25 to 50 µM
IC50 [3]: 25 to 50 µM
IC50 [4]: 25 to 50 µM
IC50 [5]: 25 to 50 µM
IC50 [6]: 25 to 50 µM
IC50 [7]: 25 to 50 µM

Compound: COc1cc2c(cc1OC)C1Cc3ccc(OC)c(OC)c3C[N+]1(Cc1ccccc1)CCC2 (centres undefined)
IC50 [9]: < 10 µM

Compound: COc1cc2c(cc1OC)-c1cc3ccc(OC)c(OCc4ccccc4)c3c[n+]1CCC2
IC50 [9]: < 10 µM

Compound: COc1ccc2cc3[n+](cc2c1OC)CCCc1cc2c(cc1-3)OCO2
IC50 [9]: 1.8 to 44 µM

Compound: COc1cc2c(cc1OC)C[N+]1(Cc3ccccc3)CCCc3cc(OC)c(OC)cc3C1C2 (centres undefined)
IC50 [9]: < 10 µM

Compound: CCOC(=O)c1c(C)nc2ccccc2c1O
Activity [15]: 27%

Compound: COc1ccc2c(c1OC)C[N+]1(Cc3ccccc3)CCCc3cc4c(cc3C1C2)OCO4 (centres undefined)
IC50 [9]: 1.8 to 44 µM

Compound: O=c1cc(Cl)sn1-c1ccc([N+](=O)[O-])cc1
IC50 [16]: 2.2 µM
inhibition [17]: 38.6%
inhibition [18]: 55.5%

Compound: O=C(NNS(=O)(=O)c1ccc2ccccc2c1)c1ccccc1F
inhibition [23]: 49%
IC50 [24]: > 200 µM
inhibition [25]: 49%
IC50 [26]: > 200 µM

Compound: COc1cc2c(cc1OC)-c1cc3ccc(OC)c(OC)c3c[n+]1CCC2
IC50 [9]: 0.42 µM

Compound: COc1ccc(S(=O)(=O)ON=C2C=C(C)C(=O)C(C)=C2)cc1
IC50 [10]: > 30 µM

Compound: COc1cc2c(cc1OC)-c1cc3ccc(OC)c(OCc4ccc([N+](=O)[O-])cc4)c3c[n+]1CCC2
IC50 [9]: < 10 µM

More lines, now with the values ahead:

inhibition [1]: 81%
Compound: CCCCCc1nc2ccccc2c(O)c1C(=O)O

inhibition [8]: 40%
Compound: Cc1cc(/C=C2\CCC/C(=C\c3cc(C)c(O)c(C)c3)C2=O)cc(C)c1O

IC50 [10]: > 2 µM
Compound: CCCCC[C@H](O)CC[C@H]1C(=O)C=C[C@@H]1C/C=C/CCCC(=O)O

IC50 [10]: 3.4 µM
Compound: CC(=O)N1CC(C)Sc2cc(S(=O)(=O)NCc3ccccc3)ccc21 (centres undefined)

IC50 [11]: 0.0026 µM
Compound: CC1=NN(c2ccc(C(=O)O)cc2)C(=O)/C1=C/c1ccc(-c2cc(C)c(C)cc2[N+](=O)[O-])o1

inhibition [12]: 90%
inhibition [13]: < 40%
inhibition [14]: 60%
Compound: Oc1cc(O)c2c(c1)O[C@H](c1ccc(O)c(O)c1)[C@@H](O)[C@@H]2c1c(O)cc(O)c2c1O[C@H](c1ccc(O)c(O)c1)[C@@H](O)C2

inhibition [8]: > 80%
Compound: N#Cc1cccc(/C=C2\CCC/C(=C\c3cccc(C#N)c3)C2=O)c1

inhibition [19]: < 10%
IC50 [10]: 5 to 7 µM
inhibition [20]: < 10%
inhibition [21]: < 10%
Compound: CC(C)=CC[C@H]1C[C@@]23C[C@@H](CC=C(C)C)C(C)(C)[C@@](CC=C(C)C)(C(=O)C(C(=O)c4ccc(OS(C)(=O)=O)c(OS(C)(=O)=O)c4)=C2OC1(C)C)C3=O

IC50 [22]: 0.022 µM
Compound: N=C(N)NCCC[C@@H]1NC(=O)/C(=C\c2ccc(O)c(OCC[C@H](NC(=O)C[C@](O)(CC(=O)O)C(=O)O)C(=O)O)c2)NC1=O (stereo in doubt)

inhibition [12]: 50%
Compound: Oc1cc(O)c2c(c1)O[C@H](c1ccc(O)c(O)c1)[C@H](O)[C@H]2c1c(O)cc(O)c2c1O[C@H](c1ccc(O)c(O)c1)[C@H](O)C2

IC50 [22]: 0.011 µM
IC50 [27]: 0.011 µM
Compound: N=C(N)NCCC[C@@H]1NC(=O)/C(=C\c2ccc(O)c(OCC[C@H](NC(=O)C[C@](O)(CC(=O)N[C@@H](CC(=O)O)C(=O)O)C(=O)O)C(=O)O)c2)NC1=O (stereo in doubt)
